Reference: US20240158418A1 (C4 Therapeutics, Inc., priority 2021, published 2024)
Where two headings read alike, the source gives them in different places.

Biological target: T1, EGFR L858R-T790M (Homo sapiens, UniProt P00533, L858R/T790M)
T1 construct: NCI-H1975 (harboring EGFR heterozygous L858R-T790M mutations); host or cells: NCI-H1975
Experiment: EGFR degradation, Total EGFR (L858R-specific) HTRF, NCI-H1975
Format: cell-based
Conditions: NCI-H1975 cells, 6 hours, Total EGFR HTRF, read-out: H1975 EGFR DC50
Method in brief: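 HTRF read-outs: pY1068 phospho-EGFR for IC50; total EGFR (pan-EGFR in A431, L858R-specific in mutant lines) for DC50. Compounds were titrated 11 points, half-log, from 10 μM in duplicate onto cells in 10% FBS RPMI, incubated 6 h at 37°C.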

T1 sequence (P00533 25-1210 T790M/L858R): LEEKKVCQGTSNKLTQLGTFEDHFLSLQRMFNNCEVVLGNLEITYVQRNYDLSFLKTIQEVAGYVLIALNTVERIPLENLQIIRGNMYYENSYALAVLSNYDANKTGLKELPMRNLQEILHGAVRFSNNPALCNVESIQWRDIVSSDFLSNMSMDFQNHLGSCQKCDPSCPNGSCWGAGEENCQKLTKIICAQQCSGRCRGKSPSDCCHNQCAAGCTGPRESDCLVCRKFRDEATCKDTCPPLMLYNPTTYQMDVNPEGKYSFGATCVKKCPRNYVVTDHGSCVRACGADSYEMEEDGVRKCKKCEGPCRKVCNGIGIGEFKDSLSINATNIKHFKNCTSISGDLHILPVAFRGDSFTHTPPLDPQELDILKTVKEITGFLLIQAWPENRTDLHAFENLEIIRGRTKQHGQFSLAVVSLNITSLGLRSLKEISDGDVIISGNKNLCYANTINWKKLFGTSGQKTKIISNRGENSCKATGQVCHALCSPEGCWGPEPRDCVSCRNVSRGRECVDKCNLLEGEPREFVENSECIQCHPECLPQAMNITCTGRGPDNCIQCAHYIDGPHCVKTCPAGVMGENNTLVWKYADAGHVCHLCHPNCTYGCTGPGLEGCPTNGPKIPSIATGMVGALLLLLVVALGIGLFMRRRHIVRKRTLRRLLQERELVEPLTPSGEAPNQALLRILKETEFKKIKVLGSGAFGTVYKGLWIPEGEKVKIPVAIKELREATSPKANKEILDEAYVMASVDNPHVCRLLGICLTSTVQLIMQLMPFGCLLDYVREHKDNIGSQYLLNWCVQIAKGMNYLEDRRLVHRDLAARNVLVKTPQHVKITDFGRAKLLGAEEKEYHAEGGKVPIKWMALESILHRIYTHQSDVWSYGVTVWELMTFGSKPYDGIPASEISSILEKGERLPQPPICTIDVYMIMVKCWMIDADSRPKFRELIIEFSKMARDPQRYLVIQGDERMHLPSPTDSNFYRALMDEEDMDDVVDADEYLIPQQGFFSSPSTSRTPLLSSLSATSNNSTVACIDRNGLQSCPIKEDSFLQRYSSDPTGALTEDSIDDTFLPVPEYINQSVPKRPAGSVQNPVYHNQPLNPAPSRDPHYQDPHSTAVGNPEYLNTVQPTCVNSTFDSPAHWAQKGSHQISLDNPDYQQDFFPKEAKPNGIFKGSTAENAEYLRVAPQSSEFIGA

Compound	DC50 (Table 9B) [nM]	DC50 (Table 9A) [nM]
O=C1CC[C@@H](Nc2ccc(N3CCC(O)(CC(=O)N4CC5(C4)CN(c4ccc(-c6cc(F)c7c(c6)C(=O)N(C(C(=O)Nc6nccs6)c6ncn8c6C[C@@H](F)C8)C7)cc4)C5)CC3)c(F)c2)C(=O)N1 (stereo partly drawn) [Compound 132, 2-[6-[4-[2-[2-[1-[4-[[(3R)-2,6-dioxo-3-piperidyl]amino]-2-fluoro-phenyl]-4-hydroxy-4-piperidyl]acetyl]-2,6-diazaspiro[3.3]heptan-6-yl]phenyl]-4-fluoro-1-oxo-isoindolin-2-yl]-2-[(6R)-6-fluoro-6,7-dihydro-5H-pyrrolo[1,2-c]imidazol-1-yl]-N-thiazol-2-yl-acetamide]	< 50	–
Cn1nc(N2CCC(=O)NC2=O)c2ccc(C3CCN(C(=O)CC4CC5(C4)CN(c4ccc(-c6cc(F)c7c(c6)C(=O)N(C(C(=O)Nc6nccs6)c6ncn8c6CCC8)C7)cc4)C5)CC3(F)F)cc21 (stereo not drawn) [Compound 102, 2-(6,7-dihydro-5H-pyrrolo[1,2-c]imidazol-1-yl)-2-(6-(4-(6-(2-(4-(3-(2,4-dioxotetrahydropyrimidin-1(2H)-yl)-1-methyl-1H-indazol-6-yl)-3,3-difluoropiperidin-1-yl)-2-oxoethyl)-2-azaspiro[3.3]heptan-2-yl)phenyl)-4-fluoro-1-oxoisoindolin-2-yl)-N-(thiazol-2-yl)acetamide]	< 50	–
Cn1nc(N2CCC(=O)NC2=O)c2ccc([C@H]3CCN(CC(=O)N4CC5(C4)CN(c4ccc(-c6cc(F)c7cn(C(C(=O)Nc8nccs8)c8ncn9c8CCC9)nc7c6)cc4)C5)CC3(F)F)cc21 (stereo partly drawn) [Compound 76, 2-(6,7-dihydro-5H-pyrrolo[1,2-c]imidazol-1-yl)-2-(6-(4-(6-(2-((R)-4-(3-(2,4-dioxotetrahydropyrimidin-1(2H)-yl)-1-methyl-1H-indazol-6-yl)-3,3-difluoropiperidin-1-yl)acetyl)-2,6-diazaspiro[3.3]heptan-2-yl)phenyl)-4-fluoro-2H-indazol-2-yl)-N-(thiazol-2-yl)acetamide]	< 50	–
Cn1nc(N2CCC(=O)NC2=O)c2ccc([C@H]3CCN(C(=O)CN4CC5(CCN(c6ccc(-c7cc(F)c8c(c7)C(=O)N(C(C(=O)Nc7nccs7)c7ncn9c7CCC9)C8)cc6)CC5)C4)CC3(F)F)cc21 (stereo partly drawn) [Compound 143, 2-(6,7-dihydro-5H-pyrrolo[1,2-c]imidazol-1-yl)-2-[6-[4-[2-[2-[(4R)-4-[3-(2,4-dioxohexahydropyrimidin-1-yl)-1-methyl-indazol-6-yl]-3,3-difluoro-1-piperidyl]-2-oxo-ethyl]-2,7-diazaspiro[3.5]nonan-7-yl]phenyl]-4-fluoro-1-oxo-isoindolin-2-yl]-N-thiazol-2-yl-acetamide]	50 to 150	–
O=C1CCC(Nc2ccc(N3CCC(O)(CC(=O)N4CC5(CCN(c6ccc(-c7cc(F)c8c(c7)C(=O)N(C(C(=O)Nc7nccs7)c7ncn9c7CCC9)C8)cc6)CC5)C4)CC3)c(F)c2)C(=O)N1 (stereo not drawn) [Compound 107, 2-(6,7-dihydro-5H-pyrrolo[1,2-c]imidazol-1-yl)-2-(6-(4-(2-(2-(1-(4-((2,6-dioxopiperidin-3-yl)amino)-2-fluorophenyl)-4-hydroxypiperidin-4-yl)acetyl)-2,7-diazaspiro[3.5]nonan-7-yl)phenyl)-4-fluoro-1-oxoisoindolin-2-yl)-N-(thiazol-2-yl)acetamide]	< 50	–
O=C1CC[C@H](Nc2ccc(N3CCC(O)(CC(=O)N4CC5(C4)CN(c4ccc(-c6cc(F)c7cn(C(C(=O)Nc8nccs8)c8ncn9c8CCC9)nc7c6)cc4)C5)CC3)c(F)c2)C(=O)N1 (stereo partly drawn) [Compound 77, 2-(6,7-dihydro-5H-pyrrolo[1,2-c]imidazol-1-yl)-2-[6-[4-[2-[2-[1-[4-[[(3S)-2,6-dioxo-3-piperidyl]amino]-2-fluoro-phenyl]-4-hydroxy-4-piperidyl]acetyl]-2,6-diazaspiro[3.3]heptan-6-yl]phenyl]-4-fluoro-indazol-2-yl]-N-thiazol-2-yl-acetamide]	< 50	–
O=C1CC[C@H](Nc2ccc(C3CCN(C(=O)CC4CC5(C4)CN(c4ccc(-c6cc(F)c7c(c6)C(=O)N(C(C(=O)Nc6nccs6)c6ncn8c6CCC8)C7)cc4)C5)CC3)c(F)c2)C(=O)N1 (stereo partly drawn) [Compound 100, 2-(6,7-dihydro-5H-pyrrolo[1,2-c]imidazol-1-yl)-2-(6-(4-(6-(2-(4-(4-(((S)-2,6-dioxopiperidin-3-yl)amino)-2-fluorophenyl)piperidin-1-yl)-2-oxoethyl)-2-azaspiro[3.3]heptan-2-yl)phenyl)-4-fluoro-1-oxoisoindolin-2-yl)-N-(thiazol-2-yl)acetamide]	< 50	–
NC1(CC(=O)N2CC3(C2)CN(c2ccc(-c4cc(F)c5c(c4)C(=O)N(C(C(=O)Nc4nccs4)c4ncn6c4CCC6)C5)cc2)C3)CCN(c2ccc(NC3CCC(=O)NC3=O)cc2F)CC1 (stereo not drawn) [Compound 162, 2-[6-[4-[2-[2-[4-amino-1-[4-[(2,6-dioxo-3-piperidyl)amino]-2-fluoro-phenyl]-4-piperidyl]acetyl]-2,6-diazaspiro[3.3]heptan-6-yl]phenyl]-4-fluoro-1-oxo-isoindolin-2-yl]-2-(6,7-dihydro-5H-pyrrolo[1,2-c]imidazol-1-yl)-N-thiazol-2-yl-acetamide]	< 50	–
O=C1CCC(Nc2ccc(C3CCN(CC(=O)N4CCC(Oc5ccc(-c6cc(F)c7c(c6)C(=O)N(C(C(=O)Nc6nccs6)c6ncn8c6CCC8)C7)cc5)CC4)CC3)cc2)C(=O)N1 (stereo not drawn) [Compound 31, 2-(6,7-dihydro-5H-pyrrolo[1,2-c]imidazol-1-yl)-2-[6-[4-[[1-[2-[4-[4-[(2,6-dioxo-3-piperidyl)amino]phenyl]-1-piperidyl]acetyl]-4-piperidyl]oxy]phenyl]-4-fluoro-1-oxo-isoindolin-2-yl]-N-thiazol-2-yl-acetamide]	–	< 50
O=C1CC[C@H](Nc2ccc(N3CCC(O)(CC(=O)N4CC5(C4)CN(c4ccc(-c6ccc7cn(C(C(=O)Nc8nccs8)c8ncn9c8CCC9)nc7c6F)cc4)C5)CC3)c(F)c2)C(=O)N1 (stereo partly drawn) [Compound 78, 2-(6,7-dihydro-5H-pyrrolo[1,2-c]imidazol-1-yl)-2-(6-(4-(6-(2-(1-(4-(((S)-2,6-dioxopiperidin-3-yl)amino)-2-fluorophenyl)-4-hydroxypiperidin-4-yl)acetyl)-2,6-diazaspiro[3.3]heptan-2-yl)phenyl)-7-fluoro-2H-indazol-2-yl)-N-(thiazol-2-yl)acetamide]	< 50	–
O=C1CCC(Nc2ccc(N3CCC(O)(CC(=O)N4CCC5(C4)CN(c4ccc(-c6cc(F)c7c(c6)C(=O)N(C(C(=O)Nc6nccs6)c6ncn8c6CCC8)C7)cc4)C5)CC3)c(F)c2)C(=O)N1 (stereo not drawn) [Compound 115, 2-(6,7-dihydro-5H-pyrrolo[1,2-c]imidazol-1-yl)-2-[6-[4-[7-[2-[1-[4-[(2,6-dioxo-3-piperidyl)amino]-2-fluoro-phenyl]-4-hydroxy-4-piperidyl]acetyl]-2,7-diazaspiro[3.4]octan-2-yl]phenyl]-4-fluoro-1-oxo-isoindolin-2-yl]-N-thiazol-2-yl-acetamide]	< 50	–
Cn1nc(N2CCC(=O)NC2=O)c2ccc([C@@H]3CCN(C(=O)CN4CCC5(CC4)CN(c4ccc(-c6cc(F)c7c(c6)C(=O)N(C(C(=O)Nc6nccs6)c6ncn8c6CCC8)C7)cc4)C5)CC3(F)F)cc21 (stereo partly drawn) [Compound 141, 2-(6,7-dihydro-5H-pyrrolo[1,2-c]imidazol-1-yl)-2-[6-[4-[7-[2-[(4S)-4-[3-(2,4-dioxohexahydropyrimidin-1-yl)-1-methyl-indazol-6-yl]-3,3-difluoro-1-piperidyl]-2-oxo-ethyl]-2,7-diazaspiro[3.5]nonan-2-yl]phenyl]-4-fluoro-1-oxo-isoindolin-2-yl]-N-thiazol-2-yl-acetamide]	50 to 150	–
O=C1CC[C@H](Nc2ccc(C3CCN(CC(=O)N4CC[C@H](Oc5ccc(-c6cc(F)c7c(c6)C(=O)N(C(C(=O)Nc6nccs6)c6ncn8c6CCC8)C7)cc5)C4)CC3)cc2)C(=O)N1 (stereo partly drawn) [Compound 42, 2-(6,7-dihydro-5H-pyrrolo[1,2-c]imidazol-1-yl)-2-[6-[4-[(3S)-1-[2-[4-[4-[[(3S)-2,6-dioxo-3-piperidyl]amino]phenyl]-1-piperidyl]acetyl]pyrrolidin-3-yl]oxyphenyl]-4-fluoro-1-oxo-isoindolin-2-yl]-N-thiazol-2-yl-acetamide]	–	< 50
Cn1nc(N2CCC(=O)NC2=O)c2cc(F)c(C3CCN(CC(=O)N4CC5(C4)CN(c4ccc(-c6cc(F)c7c(c6)C(=O)N(C(C(=O)Nc6nccs6)c6ncn8c6CCC8)C7)cc4)C5)CC3(F)F)cc21 (single isomer, unassigned; isomer 1) [Compound 129, 2-(6,7-dihydro-5H-pyrrolo[1,2-c]imidazol-1-yl)-2-[6-[4-[2-[2-[4-[3-(2,4-dioxohexahydropyrimidin-1-yl)-5-fluoro-1-methyl-indazol-6-yl]-3,3-difluoro-1-piperidyl]acetyl]-2,6-diazaspiro[3.3]heptan-6-yl]phenyl]-4-fluoro-1-oxo-isoindolin-2-yl]-N-thiazol-2-yl-acetamide, isomer 1]	< 50	–
Cn1nc(N2CCC(=O)NC2=O)c2ccc(C3CCN(CC(=O)N4CCC5(C4)CN(c4ccc(-c6cc(F)c7c(c6)C(=O)N(C(C(=O)Nc6nccs6)c6ncn8c6CCC8)C7)cc4)C5)CC3(F)F)cc21 (stereo not drawn) [Compound 113, 2-(6,7-dihydro-5H-pyrrolo[1,2-c]imidazol-1-yl)-2-(6-(4-(6-(2-(4-(3-(2,4-dioxotetrahydropyrimidin-1(2H)-yl)-1-methyl-1H-indazol-6-yl)-3,3-difluoropiperidin-1-yl)acetyl)-2,6-diazaspiro[3.4]octan-2-yl)phenyl)-4-fluoro-1-oxoisoindolin-2-yl)-N-(thiazol-2-yl)acetamide]	< 50	–
